Among the data in PubChem BioAssay (NCI) are TGI values, retold here.

Test systems include SF-268 CNS; CCRF-CEM leukemia; IGROV1 ovarian; HT29 colon; 786-0 renal; NCI-H23 lung; SNB-19 CNS; HCT-116 colon; UACC-257 melanoma; HCC-2998 colon; NCI-H522 lung; UO-31 renal; SK-MEL-5 melanoma; RPMI-8226 leukemia; CAKI-1 renal; UACC-62 melanoma; HOP-92 NSCLC.
Common to all, as to assay: NCI tumour cell line growth inhibition, 48 h

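Where inhibition never reached the appropriate level, the endpoint shown equals the highest concentration tested. Otherwise, values were interpolated linearly from a five-concentration, 48-hour dose response in 96-well plates. TGI is the concentration that stops growth completely.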 Bounds are passed on as bounds.

Turning to `COC(=O)C(CCC1(C)OCCO1)C(C)=O` (centres undefined), the TGI in the test on SF-268 CNS, in the test on CCRF-CEM leukemia, in the test on IGROV1 ovarian, with HT29 colon, in the test with 786-0 renal and with NCI-H23 lung was above 100 µM in each case. The TGI with SNB-19 CNS, with HCT-116 colon, with UACC-257 melanoma, in the test on HCC-2998 colon, in the test with NCI-H522 lung and in the test with UO-31 renal was above 100 µM throughout. In addition, the TGI with SK-MEL-5 melanoma is above 100 µM.

With `N#Cc1ccc(Nc2cnc3cc(N)ccc3n2)cc1`, the TGI in the test on SF-268 CNS, in the test with CCRF-CEM leukemia, in the test on RPMI-8226 leukemia, with HT29 colon, in the test with 786-0 renal and in the test with NCI-H23 lung was above 100 µM each time. The TGI with SNB-19 CNS, in the test with HCT-116 colon, with UACC-257 melanoma, with HCC-2998 colon, in the test with CAKI-1 renal and in the test on NCI-H522 lung was above 100 µM throughout. Also, the TGI in the test on UO-31 renal, in the test with UACC-62 melanoma, in the test with HOP-92 NSCLC and in the test on SK-MEL-5 melanoma was above 100 µM in each case.

Regarding `COC1=C(C)C(=O)C2C(C1=O)C(c1ccc(OC)c(OC)c1)[C@H]2C` (some centres undefined), the TGI in the test with SF-268 CNS, with CCRF-CEM leukemia, in the test with IGROV1 ovarian, in the test on RPMI-8226 leukemia, in the test with HT29 colon and in the test on 786-0 renal was above 100 µM in each case. Moreover, the TGI in the test on NCI-H23 lung, with SNB-19 CNS, with HCC-2998 colon, in the test with CAKI-1 renal, in the test with NCI-H522 lung and with UO-31 renal was above 100 µM in each case. Besides, the TGI in the test on UACC-62 melanoma, with HOP-92 NSCLC and with SK-MEL-5 melanoma was above 100 µM throughout.

On to `Cn1c(=O)c2c(ncn2CCCCn2ccnc2[N+](=O)[O-])n(C)c1=O`, for which the TGI with SF-268 CNS, in the test with CCRF-CEM leukemia, with IGROV1 ovarian, in the test on RPMI-8226 leukemia, in the test with HT29 colon and in the test with 786-0 renal was above 100 µM in each case. For the same compound, the TGI in the test on NCI-H23 lung, in the test on SNB-19 CNS, in the test on HCT-116 colon, with NCI-H522 lung, with UO-31 renal and in the test with UACC-62 melanoma was above 100 µM in each case. The compound also yielded a TGI with SK-MEL-5 melanoma above 100 µM.

Take `Cc1ccc(/C=C/C(=O)c2sc(C(N)=S)nc2C)cc1`: the TGI with SF-268 CNS, in the test with CCRF-CEM leukemia, in the test with IGROV1 ovarian, with RPMI-8226 leukemia, in the test on HT29 colon and with 786-0 renal was above 100 µM each time. For the same compound, the TGI with NCI-H23 lung, with UACC-257 melanoma, with HCC-2998 colon, in the test with CAKI-1 renal, in the test with NCI-H522 lung and with UO-31 renal was above 100 µM throughout. The TGI with UACC-62 melanoma, with HOP-92 NSCLC and in the test on SK-MEL-5 melanoma was above 100 µM in each case.

In the case of `COc1ccc(C2Cc3cc(OC)c(OC)c(OC)c3C2=O)cc1` (centres undefined), the TGI in the test on SF-268 CNS, in the test with CCRF-CEM leukemia, in the test with IGROV1 ovarian, in the test with RPMI-8226 leukemia, with HT29 colon and with 786-0 renal was above 100 µM each time. For the same compound, the TGI with NCI-H23 lung, in the test with SNB-19 CNS, in the test on HCT-116 colon, in the test with UACC-257 melanoma, with HCC-2998 colon and with CAKI-1 renal was above 100 µM throughout. Besides, the TGI in the test with UO-31 renal, in the test on UACC-62 melanoma and in the test on SK-MEL-5 melanoma was above 100 µM throughout.

`O=S1(=O)COc2ccccc2-c2ncncc21`: the TGI in the test with SF-268 CNS, with CCRF-CEM leukemia, with IGROV1 ovarian, in the test on RPMI-8226 leukemia, in the test with HT29 colon and in the test with 786-0 renal was above 100 µM each time. Further, the TGI in the test on NCI-H23 lung, in the test on SNB-19 CNS, with HCT-116 colon, in the test on UACC-257 melanoma, in the test with HCC-2998 colon and in the test on CAKI-1 renal was above 100 µM in each case. For the same compound, the TGI in the test with NCI-H522 lung, in the test on UO-31 renal, in the test with UACC-62 melanoma, in the test on HOP-92 NSCLC and with SK-MEL-5 melanoma was above 100 µM in each case.

`O=C(CC(=O)C(=O)CC(=O)OCc1ccccc1)OCc1ccccc1`: the TGI with SF-268 CNS, with CCRF-CEM leukemia, with IGROV1 ovarian, in the test with RPMI-8226 leukemia, in the test with HT29 colon and in the test on 786-0 renal was above 100 µM throughout. The TGI in the test on NCI-H23 lung, in the test on SNB-19 CNS, in the test on HCT-116 colon, with HCC-2998 colon, in the test on CAKI-1 renal and in the test with NCI-H522 lung was above 100 µM in each case. The TGI in the test on UO-31 renal is 75.7 µM; in the test with UACC-62 melanoma, above 100 µM; in the test on HOP-92 NSCLC, above 100 µM; in the test with SK-MEL-5 melanoma, above 100 µM.

As for `COc1ccc(NC(=O)CSc2nnc(Cc3ccccc3)o2)cc1`, the TGI in the test with SF-268 CNS, in the test with CCRF-CEM leukemia, in the test on IGROV1 ovarian, in the test on RPMI-8226 leukemia, in the test with HT29 colon and in the test with 786-0 renal was above 100 µM throughout. Moreover, the TGI in the test on NCI-H23 lung, in the test with SNB-19 CNS, in the test on HCT-116 colon, with UACC-257 melanoma, with HCC-2998 colon and in the test with CAKI-1 renal was above 100 µM in each case. Further, the TGI in the test with NCI-H522 lung, in the test on UO-31 renal, in the test on UACC-62 melanoma and with SK-MEL-5 melanoma was above 100 µM each time.

With `CC(=O)N(/N=C\c1ccc([N+](=O)[O-])cc1)c1ccccc1`, the TGI in the test with SF-268 CNS, in the test with CCRF-CEM leukemia, in the test on IGROV1 ovarian, in the test with RPMI-8226 leukemia, in the test with HT29 colon and with 786-0 renal was above 100 µM each time. For the same compound, the TGI in the test on NCI-H23 lung, with SNB-19 CNS, in the test with HCT-116 colon, in the test with UACC-257 melanoma, in the test on HCC-2998 colon and in the test on CAKI-1 renal was above 100 µM in each case. Also, the TGI with UO-31 renal, in the test with UACC-62 melanoma, with HOP-92 NSCLC and in the test on SK-MEL-5 melanoma was above 100 µM throughout.

As for `CSc1nc2nc(C)c(C)nc2c(=O)[nH]1`, the TGI in the test on SF-268 CNS, in the test on CCRF-CEM leukemia, in the test with IGROV1 ovarian, in the test with RPMI-8226 leukemia, in the test with HT29 colon and in the test with 786-0 renal was above 100 µM in each case. Moreover, the TGI in the test with NCI-H23 lung, with SNB-19 CNS, with HCT-116 colon, in the test on UACC-257 melanoma, in the test on HCC-2998 colon and in the test with CAKI-1 renal was above 100 µM throughout. Moreover, the TGI in the test on NCI-H522 lung, with UO-31 renal, with UACC-62 melanoma, in the test on HOP-92 NSCLC and with SK-MEL-5 melanoma was above 100 µM each time.

Consider `CCOC(=O)[C@H](Cc1ccccc1)NC(=O)c1nc[nH]c1[N+](=O)[O-]`, for which the TGI with SF-268 CNS, with CCRF-CEM leukemia, in the test on IGROV1 ovarian, in the test on RPMI-8226 leukemia, in the test on HT29 colon and in the test on 786-0 renal was above 100 µM each time. In addition, the TGI in the test on NCI-H23 lung, in the test on SNB-19 CNS, in the test on HCT-116 colon, in the test with UACC-257 melanoma, with HCC-2998 colon and in the test on CAKI-1 renal was above 100 µM throughout. Further, the TGI with NCI-H522 lung, in the test with UO-31 renal, in the test with UACC-62 melanoma and with SK-MEL-5 melanoma was above 100 µM in each case.

In the case of `Cc1cc(=O)cc2sc3cc(Cl)ccc3nc1-2`, the TGI was 79.5 µM in the test on SF-268 CNS; 37.5 µM with CCRF-CEM leukemia; 52 µM with IGROV1 ovarian; above 100 µM in the test with RPMI-8226 leukemia; 43.3 µM with HT29 colon; 29 µM in the test on 786-0 renal. In addition, the TGI with NCI-H23 lung turned out to be 42.8 µM; in the test on SNB-19 CNS, 61.9 µM; in the test with HCT-116 colon, 28.7 µM; in the test with UACC-257 melanoma, 69.9 µM; with HCC-2998 colon, 24.6 µM; in the test with CAKI-1 renal, 46.7 µM. Besides, the TGI in the test with NCI-H522 lung was determined as 7.65 µM; with UO-31 renal, 63.1 µM; with UACC-62 melanoma it was 20.9 µM; with HOP-92 NSCLC, 57.7 µM; with SK-MEL-5 melanoma, 12.6 µM.

Turning to `O=C1CCCCC1C1(O)C(=O)Nc2cc(F)ccc21` (centres undefined), the TGI with SF-268 CNS, in the test with CCRF-CEM leukemia, with IGROV1 ovarian, in the test on RPMI-8226 leukemia, in the test with HT29 colon and with 786-0 renal was above 100 µM in each case. Besides, the TGI with NCI-H23 lung, with SNB-19 CNS, in the test on HCT-116 colon, in the test with UACC-257 melanoma, with HCC-2998 colon and in the test with CAKI-1 renal was above 100 µM each time. Besides, the TGI with NCI-H522 lung, in the test with UO-31 renal, in the test on UACC-62 melanoma, with HOP-92 NSCLC and in the test on SK-MEL-5 melanoma was above 100 µM in each case.
